Usually IC50 stands for the midpoint of a concentration-inhibition curve. Read a high IC50 as weaker potency.

This test concerns LoVo (CCL-229) cells. Kind of test: Tumor cell anti-proliferation assay (CTG assay). The class given is cell-based. Conditions: LoVo human colorectal cancer cells, 96 h, CellTiter-Glo. As to the method: Assay 2: Tumor Cell Anti-proliferation Assay (CTG Assay)
Human colorectal cancer cells HT-29 (HTB-38) and LoVo (CCL-229) were selected for the CTG assay, the two cell lines were originally obtained from the American Type Culture Collection (ATCC). FBS and appropriate additives were added into base medium to prepare complete medium, then the cell layer was briefly rinsed with 0.25% (w/v) Trypsin-0.038% (w/v) EDTA solution to remove all traces of serum that contains trypsin inhibitor. After that, appropriate volume of Trypsin-EDTA solution was added to flask and cells under an inverted microscope were observed until cell layer was dispersed. At last, appropriate volume of complete growth medium was added and cells were aspirated by gently pipetting. Numbers were collected and counted with Vi-cell XR and cell density was adjusted, cells were seeded into 96-well opaque-walled clear bottom tissue-culture treated plates in the CO2 incubator for 20-24 hours. All the test compounds were at 10 mM in DMSO. Compounds were then added to the cell media in 3-fold serial dilutions, the final DMSO concentration was 0.5%. Plates were incubated for 96 h at 5% CO2, 37° C. Before the measurement, the appropriate volume of CellTiter-Glo Buffer was transferred into the amber bottle containing CellTiter-Glo substrate to reconstitute the lyophilized enzyme/substrate mixture, mixed gently, thereby forming the CellTiter-Glo Reagent (Promega Cat. No. G7573). The plate and its contents were equilibrated to room temperature for approximately 30 minutes, then 100 μL of CellTiter-Glo Reagent was added to the assay plate, the contents were mixed for 2 minutes on an orbital shaker to induce cell lysis, incubated at room temperature for 10 minutes to stabilize luminescent signal. At last the clear bottom was pasted with white back seal and luminescence was recorded with Enspire. IC50 and GI50 values were calculated with XLFit curve fitting software using 4 Parameter Logistic Model Y=Bottom+(Top−Bottom)/(1+(IC50/X)^HillSlope).
On the technique in general: ATP-based viability assays read luminescence as a measure of living cells.
`C[C@@H]1COCCN1c1cc(C2(S(C)(=O)=O)CC2)nc(Nc2cc(Cl)n[nH]2)n1` [Example 77, (R)—N-(3-chloro-1H-pyrazol-5-yl)-4-(3-methylmorpholino)-6-(1-(methylsulfonyl)cyclopropyl)pyrimidin-2-amine]: the IC50 came to 1000 nM.

`C[C@@H]1COCCN1c1cc(-c2ccnn2C)c2c(Cl)nc(-c3ccn[nH]3)n2n1` [Example 61, (3R)-4-[5-chloro-4-(1-methyl-1H-pyrazol-5-yl)-7-(1H-pyrazol-5-yl)imidazo[1,5-b]pyridazin-2-yl]-3-methylmorpholine]: half-maximal inhibition (IC50) was put at 26.5 nM. As for `Cc1cc(-c2nsc3c(C4(CO)CC4)cc(N4CCOC[C@H]4C)nc23)[nH]n1` [Example 98, (R)-(1-(3-(3-methyl-1H-pyrazol-5-yl)-5-(3-methylmorpholino)isothiazolo[4,5-b]pyridin-7-yl)cyclopropyl)methanol], the figure is 14 nM. The value for `C[C@@H]1COCCN1c1cc(-c2cnnn2C)c2snc(-c3ccn[nH]3)c2n1` [Example 69, (R)-3-methyl-4-(7-(1-methyl-1H-1,2,3-triazol-5-yl)-3-(1H-pyrazol-5-yl)isothiazolo[4,5-b]pyridin-5-yl)morpholine] was 15 nM; that for `C[C@@H]1COCCN1c1cc(C2(O)CCCCC2)c2snc(-c3ccn[nH]3)c2n1` [Example 91, (R)-1-(5-(3-methylmorpholino)-3-(1H-pyrazol-5-yl)isothiazolo[4,5-b]pyridin-7-yl)cyclohexan-1-ol] was 2 nM; that for `Cc1cc(-c2nc(C)c3c(-c4ccnn4C)cc(N4CCOC[C@H]4C)nn23)[nH]n1` [Example 47, (R)-3-methyl-4-(5-methyl-4-(1-methyl-1H-pyrazol-5-yl)-7-(3-methyl-1H-pyrazol-5-yl)imidazo[1,5-b]pyridazin-2-yl)morpholine] was 17.1 nM. As for `Cc1nc(-c2ccn[nH]2)n2nc(N3CC4CCC(C3)O4)cc(-c3ccnn3C)c12` [Example 65, 3-[5-methyl-4-(1-methyl-1H-pyrazol-5-yl)-7-(1H-pyrazol-5-yl)imidazo [1,5-b]pyridazin-2-yl]-8-oxa-3-azabicyclo[3.2.1]octane], the IC50 came to 55.2 nM. This IC50 is about 3.2-fold higher than that of the compound before. Turning to `Cc1cc(-c2nsc3c(P(C)(C)=O)cc(N4CCOC[C@H]4C)nc23)n(C2CCCCO2)n1` (stereo partly drawn) [Example 108, dimethyl(3-(3-methyl-1-(tetrahydro-2H-pyran-2-yl)-1H-pyrazol-5-yl)-5-((R)-3-methylmorpholino)isothiazolo[4,5-b]pyridin-7-yl)phosphine oxide], 35 nM corresponded to half-maximal inhibition (IC50). Compared with the last compound, the IC50 is about 1.6-fold lower. The value for `C[C@@H]1COCCN1c1cc(-c2cccnc2C(F)(F)F)c2snc(-c3ccn[nH]3)c2n1` [Example 101, (3R)-3-methyl-4-[3-(1H-pyrazol-5-yl)-7-[2-(trifluoromethyl)pyridin-3-yl]-[1,2]thiazolo[4,5-b]pyridin-5-yl]morpholine] was 15.5 nM. The value for `CCn1nncc1-c1cc(N2CCOC[C@H]2C)nc2c(-c3cc(C)n[nH]3)nsc12` [Example 107, (3R)-4-[7-(1-ethyl-1H-1,2,3-triazol-5-yl)-3-(3-methyl-1H-pyrazol-5-yl)-[1,2]thiazolo[4,5-b]pyridin-5-yl]-3-methylmorpholine] was 15 nM; that for `Cc1cc(-c2nsc3c(C4(O)CCCCC4)cc(N4CCOC[C@H]4C)nc23)[nH]n1` [Example 86, (R)-1-(3-(3-methyl-1H-pyrazol-5-yl)-5-(3-methylmorpholino)isothiazolo[4,5-b]pyridin-7-yl)cyclohexan-1-ol] was 9 nM. Take `Cc1cc(-c2ncc3c(-c4ccnn4C)cc(N4CC5CCC(C4)O5)nn23)[nH]n1` [Example 79, 3-[4-(1-methyl-1H-pyrazol-5-yl)-7-(3-methyl-1H-pyrazol-5-yl)imidazo[1,5-b]pyridazin-2-yl]-8-oxa-3-azabicyclo[3.2.1]octane]: the midpoint of inhibition, the IC50, lay at 246 nM. As for `Cc1cc(-c2nsc3c(C(C)(C)O)cc(N4CCOC[C@H]4C)nc23)[nH]n1` [Example 67, (R)-2-(3-(3-methyl-1H-pyrazol-5-yl)-5-(3-methylmorpholino)isothiazolo[4,5-b]pyridin-7-yl)propan-2-ol], the figure is 5 nM. The value for `Cc1cc(-c2nc(C)c3c(-c4c(C)nnn4C)cc(N4CCOC[C@H]4C)nn23)[nH]n1` [Example 46, (3R)-4-[4-(dimethyl-1H-1,2,3-triazol-5-yl)-5-methyl-7-(3-methyl-1H-pyrazol-5-yl)imidazo[1,5-b]pyridazin-2-yl]-3-methylmorpholine] was 51.2 nM.

The compound `Cc1cc(-c2nsc3c(-c4ncnn4C)cc(N4CCOC[C@H]4C)nc23)[nH]n1` [Example 102, (R)-3-methyl-4-(7-(1-methyl-1H-1,2,4-triazol-5-yl)-3-(3-methyl-1H-pyrazol-5-yl)isothiazolo[4,5-b]pyridin-5-yl)morpholine] returned an IC50 of 26 nM. As for `Cc1cc(-c2ncc3c(C(C)(C)S(C)(=O)=O)cc(N4CCOC[C@H]4C)nn23)[nH]n1` [Example 42, (R)-3-methyl-4-(7-(3-methyl-1H-pyrazol-5-yl)-4-(2-(methylsulfonyl)propan-2-yl)imidazo[1,5-b]pyridazin-2-yl)morpholine], the figure is 79.3 nM. In turn, `Cc1cc(-c2nc(C)c3c(-c4ccnn4C)cc(N4CC5CCC(C4)O5)nn23)[nH]n1` [Example 66, 3-[5-methyl-4-(1-methyl-1H-pyrazol-5-yl)-7-(3-methyl-1H-pyrazol-5-yl)imidazo[1,5-b]pyridazin-2-yl]-8-oxa-3-azabicyclo[3.2.1]octane] had an IC50 of 69 nM. The value for `Cc1cc(-c2nsc3c(-c4ccnn4C)cc(N4CCOC[C@H]4C)nc23)[nH]n1` [Example 37, (R)-3-methyl-4-(7-(1-methyl-1H-pyrazol-5-yl)-3-(3-methyl-1H-pyrazol-5-yl)isothiazolo[4,5-b]pyridin-5-yl)morpholine] was 36.6 nM; that for `C[C@@H]1COCCN1c1cc(C2(C#N)CC2)c2cnc(-c3ccn[nH]3)n2n1` [Example 44, (R)-1-(2-(3-methylmorpholino)-7-(1H-pyrazol-5-yl)imidazo[1,5-b]pyridazin-4-yl)cyclopropane-1-carbonitrile] was 43.9 nM; that for `Cc1noc(C)c1-c1cc(N2CCOC[C@H]2C)nc2c(-c3ccn[nH]3)nsc12` [Example 72, (R)-4-(7-(3,5-dimethylisoxazol-4-yl)-3-(1H-pyrazol-5-yl)isothiazolo[4,5-b]pyridin-5-yl)-3-methylmorpholine] was 101 nM. As for `Cn1nccc1-c1cc(N2CC3CCC(C2)O3)nn2c(-c3ccn[nH]3)ncc12` [Example 78, 3-[4-(1-methyl-1H-pyrazol-5-yl)-7-(1H-pyrazol-5-yl)imidazo[1,5-b]pyridazin-2-yl]-8-oxa-3-azabicyclo[3.2.1]octane], the figure is 152 nM; as for `Cc1cc(-c2nsc3c(-c4ccccc4S(C)(=O)=O)cc(N4CCOC[C@H]4C)nc23)[nH]n1` [Example 95, (3R)-4-[7-(2-methanesulfonylphenyl)-3-(3-methyl-1H-pyrazol-5-yl)-[1,2]thiazolo[4,5-b]pyridin-5-yl]-3-methylmorpholine], 36 nM; as for `Cc1cc(-c2nsc3c(Cl)cc(N4CCOC[C@H]4C)nc23)[nH]n1` [Example 104, (R)-4-(7-chloro-3-(3-methyl-1H-pyrazol-5-yl)isothiazolo[4,5-b]pyridin-5-yl)-3-methylmorpholine], 154 nM. On to `C[C@@H]1COCCN1c1cc(C2(C#N)CCCC2)c2cnc(-c3ccn[nH]3)n2n1` [Example 59, 1-{2-[(3R)-3-methylmorpholin-4-yl]-7-(1H-pyrazol-5-yl)imidazo[1,5-b]pyridazin-4-yl}cyclopentane-1-carbonitrile], for which the midpoint of inhibition, the IC50, lay at 28.1 nM.

`Cc1nnn(C)c1-c1cc(N2CCOC[C@H]2C)nc2c(-c3ccn[nH]3)nsc12` [Example 38, (R)-4-(7-(1,4-dimethyl-1H-1,2,3-triazol-5-yl)-3-(1H-pyrazol-5-yl)isothiazolo[4,5-b]pyridin-5-yl)-3-methylmorpholine] displayed an IC50 of 40.4 nM. On to `C[C@@H]1COCCN1c1cc(C2(C(N)=O)CCCC2)c2snc(-c3ccn[nH]3)c2n1` [Example 90, 1-{5-[(3R)-3-methylmorpholin-4-yl]-3-(1H-pyrazol-5-yl)-[1,2]thiazolo[4,5-b]pyridin-7-yl}cyclopentane-1-carboxamide], for which the 50% inhibitory concentration (IC50) was 5 nM. Turning to `Cc1cnn(C)c1-c1cc(N2CCOC[C@H]2C)nc2c(-c3ccn[nH]3)nsc12` [Example 70, (R)-4-(7-(1,4-dimethyl-1H-pyrazol-5-yl)-3-(1H-pyrazol-5-yl)isothiazolo[4,5-b]pyridin-5-yl)-3-methylmorpholine], the IC50 worked out at 18 nM.

On to `COC(=O)C1(c2cc(N3CCOC[C@H]3C)nc3c(-c4ccn[nH]4)nsc23)CCCC1` [Example 92], for which the IC50 turned out to be 94 nM. The value for `C[C@@H]1COCCN1c1cc(C2(S(C)(=O)=O)CC2)c2snc(-c3ccn[nH]3)c2n1` [Example 49, (R)-3-methyl-4-(7-(1-(methylsulfonyl)cyclopropyl)-3-(1H-pyrazol-5-yl)isothiazolo[4,5-b]pyridin-5-yl)morpholine] was 16.1 nM.
